Source: patent US20260335323A1, “CHIMERIC MOLECULE” (UCL Business Ltd, priority 2023, published 2026)

Biological target: T1, ULK1 (Homo sapiens, UniProt O75385)
T1 sequence (O75385 1-1050): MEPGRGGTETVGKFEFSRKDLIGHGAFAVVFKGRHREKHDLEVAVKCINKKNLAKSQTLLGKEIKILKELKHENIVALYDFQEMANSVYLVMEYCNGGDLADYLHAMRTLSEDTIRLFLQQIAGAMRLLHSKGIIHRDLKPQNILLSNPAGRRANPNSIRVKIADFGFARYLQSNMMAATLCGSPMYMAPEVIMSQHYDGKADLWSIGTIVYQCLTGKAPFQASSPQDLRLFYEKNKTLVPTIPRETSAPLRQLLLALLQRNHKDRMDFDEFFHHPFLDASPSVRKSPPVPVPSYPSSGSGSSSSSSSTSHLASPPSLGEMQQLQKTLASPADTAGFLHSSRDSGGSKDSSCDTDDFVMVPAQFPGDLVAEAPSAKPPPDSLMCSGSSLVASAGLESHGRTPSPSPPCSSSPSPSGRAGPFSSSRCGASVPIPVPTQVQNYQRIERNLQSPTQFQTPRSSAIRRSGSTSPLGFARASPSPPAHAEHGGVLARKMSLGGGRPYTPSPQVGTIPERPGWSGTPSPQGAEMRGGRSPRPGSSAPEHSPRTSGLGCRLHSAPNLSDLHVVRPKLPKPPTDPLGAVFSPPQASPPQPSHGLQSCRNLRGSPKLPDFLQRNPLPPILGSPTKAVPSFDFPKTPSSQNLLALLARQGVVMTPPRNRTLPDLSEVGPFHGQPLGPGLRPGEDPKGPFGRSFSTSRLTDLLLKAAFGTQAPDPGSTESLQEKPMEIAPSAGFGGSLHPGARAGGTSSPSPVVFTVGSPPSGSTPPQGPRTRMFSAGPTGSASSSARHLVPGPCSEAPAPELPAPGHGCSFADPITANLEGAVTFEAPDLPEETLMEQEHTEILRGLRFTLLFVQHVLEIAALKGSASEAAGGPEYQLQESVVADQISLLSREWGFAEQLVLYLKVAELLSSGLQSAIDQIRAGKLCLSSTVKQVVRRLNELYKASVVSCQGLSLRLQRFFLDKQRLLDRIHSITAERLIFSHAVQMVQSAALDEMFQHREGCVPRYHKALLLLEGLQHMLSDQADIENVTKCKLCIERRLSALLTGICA
Assay: Western blot, phosphorylation of ULK1 at Ser317 in PANC-1 cells
Assay type: cell-based
Parameters: pSer317 blot or TOM20 co-localisation
Excerpt: FIG. 2. BL-918 is a potent ULK1 agonist and autophagy inducer (A) Representative images of PANC-1 cells stably expressing the mCherry-EGFP-LC3 tandem reporter treated with ULK1 agonists. Nuclei stained with Hoechst 33342, autophagosomes are shown in the EGFP channel and autolysosomes in the mCherry channel. Fold change in the number of autophagosomes (B) and autolysosomes (C) puncta in ULK1 agonist treated cells. (D) Western blot of PANC-1 cells treated with DMSO, bafilomycin and ULK1 agonists±bafilomycin; probed for p-ULK1 (S317), ULK1, p62, b-actin, LC3-I and LC3-II. Quantifications of western blot for changes in the ratio of p-ULK1 (S317):ULK1 (E), p62 (F) and LC31:LC3II (G). All data shown are mean±SEM, n=3, *p<0.05, ** p<0.01, one-way ANOVA with Dunnett's multiple comparisons test.
FIG. 4. ULKTACs retain ULK1 agonist activity and subsequent induction of autophagy (A) Western blot of PANC-1 cells treated with ULKTACs±bafilomycin, probed for p-ULK1 (S317), ULK1, p62, b-Actin, LC31 and LC3II. Quantifications of (A) for the pULK1:ULK1 ratio (B) LC3I:LC3II ratio (C) and changes in p62 (D). (E) Representative images of PANC-1 cells stably expressing the mCherry-EGFP-LC3 tandem reporter treated with ULKTACs w/or w/o bafilomycin. Nuclei stained with Hoechst 33342, autophagosomes are shown in the EGFP channel and autolysosomes in the mCherry channel. Fold change in the number of autophagosome (F) and autolysosome (G) puncta. Data shown are mean±SEM, *p<0.05, ** p<0.01, *** p<0.001, one-way ANOVA, Dunnett's multiple comparisons test.
Cells were homogenised in protein lysis buffer consisting of 0.1 M Tris pH 8.0, 0.1 M NaCl, 5% glycerol, IGEPAL® CA-630 (#18896. Sigma-Aldrich) and 5 mM EDTA, 0.1 M N-ethyl maleimide (ThermoFisher, #23030) and protease inhibitor (Cell Signalling Technologies, #5871). Protein concentrations were determined using the BCA assay to ensure equal loading. […] The membranes were immunoblotted with primary antibodies, overnight at 4° C. ULK1 (D8H5) Rabbit mAb (#0854) [1:1000], Phospho-ULK1 (Ser 317) Rabbit antibody (#37762) [1:1000], LC3B Rabbit antibody (#2775) [1:1000], TOM20 (D8T4N) Rabbit mAb (#42406) [1:1000] and, Phospho-Ubiquitin (Ser 65) (E2J6T) Rabbit mAb (#62082) [1:500] were obtained from Cell Signalling Technologies. Recombinant Anti-Vinculin Rabbit antibody (EPR8185) (#ab129002) [1:5000] and Anti-Mitofusin2 mouse antibody (6A8) (#ab56889) [1:1000] were purchased from Abcam. […]
Membranes were then incubated with horseradish peroxidase (HRP)-conjugated secondary antibodies (Rabbit #7074 and Mouse #7076) purchased from Cell Signalling Technologies for 1 hour and the HRP signal was detected using EZ-ECL Enhanced Chemiluminescence Detection Kit for HRP (#20-500-500, Sartorius), and imaged with an Alliance Q9 Advanced (UVITec). […]

| phosphorylation of ULK1 at Ser317 | activation of ULK1 and autophagy (overall) | SMILES |
| --- | --- | --- |
| strong increase in phospho-Ser317 levels |  | O=C(Nc1cc(C(F)(F)F)cc(C(F)(F)F)c1)N[C@@H](C(=O)Nc1ccc(F)cc1F)c1ccc(OCc2cn(CCCCCCNC(=O)C(=O)c3c(-c4ccccc4)[nH]c4ccccc34)nn2)cc1 [NZ-66, (R)-2-(3-(3,5-bis(trifluoromethyl)phenyl)ureido)-N-(2,4-difluorophenyl)-2-(4-((1-(6-(2-oxo-2-(2-phenyl-1H-indol-3-yl)acetamido)hexyl)-1H-1,2,3-triazol-4-yl)methoxy)phenyl) acetamide] |
| strong increase in phospho-Ser317 levels |  | O=C(Nc1cc(C(F)(F)F)cc(C(F)(F)F)c1)N[C@@H](C(=O)Nc1ccc(F)cc1F)c1ccc(OCc2cn(CCOCCOCCNC(=O)C(=O)c3c(-c4ccccc4)[nH]c4ccccc34)nn2)cc1 [NZ-65, (R)-2-(3-(3,5-bis(trifluoromethyl)phenyl)ureido)-N-(2,4-difluorophenyl)-2-(4-((1-(2-(2-(2-(2-oxo-2-(2-phenyl-1H-indol-3-yl)acetamido)ethoxy)ethoxy)ethyl)-1H-1,2,3-triazol-4-yl)methoxy)phenyl) acetamide] |

| SMILES | phosphorylation of ULK1 at Ser317 | activation of ULK1 and autophagy (overall) |
| --- | --- | --- |
| O=C(Nc1ccc(F)cc1F)[C@H](NC(=S)Nc1cc(C(F)(F)F)cc(C(F)(F)F)c1)c1ccccc1 [BL-918, reference compound] | induction of phosphorylation of ULK1 at Ser317 | potent activator of ULK1 and autophagy |
